Data reported in US20240101570A1 (AMGEN INC., priority 2020, published 2024).

Columns and labels:
HCT116 WT cells = test: HCT116 WT cell proliferation / viability (CellTiter-Glo, 6 days); assay type: cell-based; settings: Homo sapiens, HCT-116, 144 h, HCT116 WT cells, 6 days, CellTiter-Glo; read-out: HCT-116 WT IC50
Method in brief: (§1)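 Viability read by CellTiter-Glo after 6-day compound exposure of MTAP-null and wild-type HCT116 cells grown in RPMI 1640 with 10% FBS. Dosing used 1:3 steps from 1 or 10 μM (8-9 points) or 1:2 steps from 10 or 50 μM (22 points); IC50 taken where fitted curve crosses 50% of control.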

HCT116 MTAP null cells = test: HCT116 MTAP null cell proliferation / viability (CellTiter-Glo, 6 days); assay type: cell-based; settings: HCT116-MTAP null, 144 h, HCT116 MTAP null cells, 6 days, CellTiter-Glo; read-out: HCT-116 MTAP null IC50
Method in brief: as §1

Compound	IC50 (HCT116 WT cells) [nM]	IC50 (HCT116 MTAP null cells) [nM]
Nc1nc2cc(F)c(C(=O)N(Cc3ccc(C(F)(F)F)cn3)C3CC3)cc2c2c1COC2 [Example 369, 4-amino-N-cyclopropyl-7-fluoro-N-((5-(trifluoromethyl)-2-pyridinyl)methyl)-1,3-dihydrofuro[3,4-c]quinoline-8-carboxamide]	5040	124
CN(Cc1ccc(C2CC2)cn1)C(=O)c1cc2c3c(c(N)nc2cc1F)COC3 [Example 372, 4-amino-N-((5-cyclopropyl-2-pyridinyl)methyl)-7-fluoro-N-methyl-1,3-dihydrofuro[3,4-c]quinoline-8-carboxamide]	5610	110
CN(Cc1ccc(C(F)(F)F)nn1)C(=O)c1cc2c3c(c(N)nc2cn1)COC3 [Example 375, 4-amino-N-methyl-N-((6-(trifluoromethyl)-3-pyridazinyl)methyl)-1,3-dihydrofuro[3,4-c][1,7]naphthyridine-8-carboxamide]	6890	1500
C[C@H]1OCc2c1c(N)nc1ccc(C(=O)N(C)Cc3ccc(C(F)(F)F)cn3)cc21 [Example 376, (3R)-4-amino-N,3-dimethyl-N-((5-(trifluoromethyl)-2-pyridinyl)methyl)-1,3-dihydrofuro[3,4-c]quinoline-8-carboxamide]	15200	222
CCOc1ccc(CN(C(=O)c2cc3c4c(c(N)nc3cn2)COC4)C23CC(C2)C3)nn1 [Example 378, 4-amino-N-(bicyclo[1.1.1]pentan-1-yl)-N-((6-ethoxy-3-pyridazinyl)methyl)-1,3-dihydrofuro[3,4-c][1,7]naphthyridine-8-carboxamide]	9430	294
C[C@H]1OCc2c1c(N)nc1ccc(C(=O)N(Cc3ccc(C(F)(F)F)cn3)C34CC(C3)C4)cc21 [Example 380, (3R)-4-amino-N-(bicyclo[1.1.1]pentan-1-yl)-3-methyl-N-((5-(trifluoromethyl)-2-pyridinyl)methyl)-1,3-dihydrofuro[3,4-c]quinoline-8-carboxamide]	4100	56
Nc1nc2cnc(C(=O)N(Cc3ccc(C(F)(F)F)nn3)C3CC3)cc2c2c1COC2 [Example 382, 4-amino-N-cyclopropyl-N-((6-(trifluoromethyl)-3-pyridazinyl)methyl)-1,3-dihydrofuro[3,4-c][1,7]naphthyridine-8-carboxamide]	22800	1160
CC(C)N(Cc1ccc(C2CC2)nc1)C(=O)c1cc2c3c(c(N)nc2cn1)COC3 [Example 383, 4-amino-N-((6-cyclopropyl-3-pyridinyl)methyl)-N-(2-propanyl)-1,3-dihydrofuro[3,4-c][1,7]naphthyridine-8-carboxamide]	43000	1310
CC(C)N(Cc1ccc(C2CC2)cn1)C(=O)c1cc2c3c(c(N)nc2cn1)COC3 [Example 385, 4-amino-N-((5-cyclopropyl-2-pyridinyl)methyl)-N-(2-propanyl)-1,3-dihydrofuro[3,4-c][1,7]naphthyridine-8-carboxamide]	7280	157
C[C@H]1OCc2c1c(N)nc1ccc(C(=O)N(C)Cc3ccc(C#N)cn3)cc21 [Example 386, (3R)-4-amino-N-((5-cyano-2-pyridinyl)methyl)-N,3-dimethyl-1,3-dihydrofuro[3,4-c]quinoline-8-carboxamide]	30300	455
CC(C)N(Cc1ccc(C(F)(F)F)nn1)C(=O)c1ccc2nc(N)c3c(c2c1)COC3 [Example 391, 4-amino-N-(2-propanyl)-N-((6-(trifluoromethyl)-3-pyridazinyl)methyl)-1,3-dihydrofuro[3,4-c]quinoline-8-carboxamide]	4540	91
CC(C)N(Cc1ccc(C(F)(F)F)nn1)C(=O)c1ccc2nc(N)c3c(c2c1)CO[C@@H]3C [Example 393, (3R)-4-amino-3-methyl-N-(2-propanyl)-N-((6-(trifluoromethyl)-3-pyridazinyl)methyl)-1,3-dihydrofuro[3,4-c]quinoline-8-carboxamide]	6930	113

Continued, values first:

IC50 (HCT116 WT cells) [nM]	IC50 (HCT116 MTAP null cells) [nM]	Compound
1370	29	Nc1nc2cc(F)c(C(=O)N(Cc3ccc(C4CC4)cn3)C3CC3)cc2c2c1COC2 [Example 370, 4-amino-N-cyclopropyl-N-((5-cyclopropyl-2-pyridinyl)methyl)-7-fluoro-1,3-dihydrofuro[3,4-c]quinoline-8-carboxamide]
288	10	CC(C)N(Cc1ccc(C2CC2)cn1)C(=O)c1cc2c3c(c(N)nc2cc1F)COC3 [Example 371, 4-amino-N-((5-cyclopropyl-2-pyridinyl)methyl)-7-fluoro-N-(2-propanyl)-1,3-dihydrofuro[3,4-c]quinoline-8-carboxamide]
2980	22	CCOc1ccc(CN(C(=O)c2ccc3nc(N)c4c(c3c2)COC4)[C@H](C)COC)nn1 [Example 373, 4-amino-N-((6-ethoxy-3-pyridazinyl)methyl)-N-((2R)-1-methoxy-2-propanyl)-1,3-dihydrofuro[3,4-c]quinoline-8-carboxamide]
286	14	CCOc1ccc(CN(C(=O)c2ccc3nc(N)c4c(c3c2)CO[C@@H]4C)[C@H](C)COC)nn1 [Example 374, (3R)-4-amino-N-((6-ethoxy-3-pyridazinyl)methyl)-N-((2R)-1-methoxy-2-propanyl)-3-methyl-1,3-dihydrofuro[3,4-c]quinoline-8-carboxamide]
2060	49	CC(C)N(Cc1ccc(C2CC2)cn1)C(=O)c1ccc2nc(N)c3c(c2c1)CO[C@@H]3C [Example 377, (3R)-4-amino-N-((5-cyclopropyl-2-pyridinyl)methyl)-3-methyl-N-(2-propanyl)-1,3-dihydrofuro[3,4-c]quinoline-8-carboxamide]
764	25	CC(C)N(Cc1ccc(C2CC2)cn1)C(=O)c1cc2c3c(c(N)nc2cc1Cl)COC3 [Example 379, 4-amino-7-chloro-N-((5-cyclopropyl-2-pyridinyl)methyl)-N-(2-propanyl)-1,3-dihydrofuro[3,4-c]quinoline-8-carboxamide]
1560	8	Nc1nc2cc(F)c(C(=O)N(Cc3ccc(C(F)(F)F)cn3)C34CC(C3)C4)cc2c2c1COC2 [Example 381, 4-amino-N-(bicyclo[1.1.1]pentan-1-yl)-7-fluoro-N-((5-(trifluoromethyl)-2-pyridinyl)methyl)-1,3-dihydrofuro[3,4-c]quinoline-8-carboxamide]
1380	53	CC(C)N(Cc1ccc(C(F)(F)F)cn1)C(=O)c1ccc2nc(N)c3c(c2c1)CO[C@@H]3C [Example 384, (3R)-4-amino-3-methyl-N-(2-propanyl)-N-((5-(trifluoromethyl)-2-pyridinyl)methyl)-1,3-dihydrofuro[3,4-c]quinoline-8-carboxamide]
4040	175	CCOc1ccc(CN(C(=O)c2ccc3nc(N)c4c(c3c2)COC4)C23CC(C2)C3)nn1 [Example 387, 4-amino-N-(bicyclo[1.1.1]pentan-1-yl)-N-((6-ethoxy-3-pyridazinyl)methyl)-1,3-dihydrofuro[3,4-c]quinoline-8-carboxamide]
1280	54	CCOc1ccc(CN(C(=O)c2cc3c4c(c(N)nc3cn2)COC4)[C@H](C)COC)nn1 [Example 388, 4-amino-N-((6-ethoxy-3-pyridazinyl)methyl)-N-((2R)-1-methoxy-2-propanyl)-1,3-dihydrofuro[3,4-c][1,7]naphthyridine-8-carboxamide]
3390	50	CN(Cc1ccc(C(F)(F)F)nn1)C(=O)c1cc2c3c(c(N)nc2cc1Cl)COC3 [Example 389, 4-amino-7-chloro-N-methyl-N-((6-(trifluoromethyl)-3-pyridazinyl)methyl)-1,3-dihydrofuro[3,4-c]quinoline-8-carboxamide]
1540	57	CC(C)N(Cc1ccc(C#N)cn1)C(=O)c1cc2c3c(c(N)nc2cc1Cl)COC3 [Example 392, 4-amino-7-chloro-N-((5-cyano-2-pyridinyl)methyl)-N-(2-propanyl)-1,3-dihydrofuro[3,4-c]quinoline-8-carboxamide]
831	30	CC(C)N(Cc1ccc(C(F)(F)F)nn1)C(=O)c1cc2c3c(c(N)nc2cc1Cl)COC3 [Example 394, 4-amino-7-chloro-N-(2-propanyl)-N-((6-(trifluoromethyl)-3-pyridazinyl)methyl)-1,3-dihydrofuro[3,4-c]quinoline-8-carboxamide]
535	31	Nc1nc2cc(Cl)c(C(=O)N(Cc3ccc(C(F)(F)F)cn3)C34CC(C3)C4)cc2c2c1COC2 [Example 395, 4-amino-N-(bicyclo[1.1.1]pentan-1-yl)-7-chloro-N-((5-(trifluoromethyl)-2-pyridinyl)methyl)-1,3-dihydrofuro[3,4-c]quinoline-8-carboxamide]
629	20	C[C@H]1OCc2c1c(N)nc1cnc(C(=O)N(Cc3ccc(C(F)(F)F)cn3)CC3CC3)cc21 [Example 396, (3R)-4-amino-N-(cyclopropylmethyl)-3-methyl-N-((5-(trifluoromethyl)-2-pyridinyl)methyl)-1,3-dihydrofuro[3,4-c][1,7]naphthyridine-8-carboxamide]
1100	55	CCOc1ccc(CN(C(=O)c2cc3c4c(c(N)nc3cn2)[C@@H](C)OC4)[C@H](C)COC)nn1 [Example 397, (3R)-4-amino-N-((6-ethoxy-3-pyridazinyl)methyl)-N-((2R)-1-methoxy-2-propanyl)-3-methyl-1,3-dihydrofuro[3,4-c][1,7]naphthyridine-8-carboxamide]
